Our source for the IC50 values is patent US8952162B2, “Triazolopyridines as phosphodiesterase inhibitors for treatment of dermal diseases” (Leo Pharma A/S, priority 2008, dated 2015).

This assay deals with Human recombinant PDE4 (Genbank accession no NM—006203) (Homo sapiens, UniProt Q08499). As to the kind of experiment: PDE4 assay (SPA, cAMP cleavage). The class given is biochemical. Conditions: read-out: PDE4 IC50 range. On the procedure:
At the end of the incubation, the cleavage of the substrate was evaluated by the binding of the AMP product to SPA beads, which generate chemoluminescence when bound to the radioactive tracer. The AMP product inhibited the binding of the radioactive tracer to the beads, and the luminescent signal was competed.

The mark [1] stands for this setting: Example 52, human recombinant PDE4, 1 hour incubation, cAMP 1×10^-5M, test compound up to 10 μM.
Where [2] appears, read: Example 53, PDE4 assay as in example 52.

Read-outs that look alike come from different tables or passages of the source.

Human recombinant PDE4 (Genbank accession no NM—006203), sequence (Q08499 1-673 isoform Q08499-2): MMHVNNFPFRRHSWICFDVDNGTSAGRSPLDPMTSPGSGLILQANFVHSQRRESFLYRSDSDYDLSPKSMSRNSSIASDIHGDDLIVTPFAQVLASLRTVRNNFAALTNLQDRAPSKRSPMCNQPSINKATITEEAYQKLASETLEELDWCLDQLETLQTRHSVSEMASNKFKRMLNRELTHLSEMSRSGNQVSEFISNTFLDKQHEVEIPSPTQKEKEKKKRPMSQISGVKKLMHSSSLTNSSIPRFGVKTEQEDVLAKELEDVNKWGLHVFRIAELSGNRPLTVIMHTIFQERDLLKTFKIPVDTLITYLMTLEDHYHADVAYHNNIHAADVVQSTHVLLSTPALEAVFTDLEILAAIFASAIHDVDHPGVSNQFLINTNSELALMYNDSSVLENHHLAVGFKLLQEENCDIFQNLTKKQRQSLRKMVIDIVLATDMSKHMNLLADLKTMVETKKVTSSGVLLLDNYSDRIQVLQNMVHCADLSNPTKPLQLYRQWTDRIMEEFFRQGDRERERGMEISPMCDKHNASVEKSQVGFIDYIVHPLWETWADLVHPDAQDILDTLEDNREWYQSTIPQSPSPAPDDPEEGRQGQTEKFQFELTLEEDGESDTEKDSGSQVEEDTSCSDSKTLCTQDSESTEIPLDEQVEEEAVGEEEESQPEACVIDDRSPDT

The term IC50 denotes the concentration that gives 50% inhibition. With `COc1ccc(-c2cccc(S(C)(=O)=O)c2)n2nc(C3CC3)nc12` [Compound 112, 2-Cyclopropyl-5-(3-methanesulfonyl-phenyl)-8-methoxy-[1,2,4]triazolo[1,5-a]pyridine], under setting [1], the IC50 lay within 500 to 1000 nM.
On to `COc1ccc(-c2cccc(C#N)c2)n2nc(C3(C(=O)N4CCOCC4)CC3)nc12` [Compound 196, 3-{8-Methoxy-2-[1-(morpholine-4-carbonyl)-cyclopropyl]-[1,2,4]triazolo-[1,5-a]pyridin-5-yl}-benzonitrile], for which, under setting [2], the IC50 lay in the range of 500 to 1000 nM.
For the compound `COc1ccc(-c2cncnc2)n2nc(C3CC3)nc12` [Compound 111, 2-Cyclopropyl-8-methoxy-5-pyrimidin-5-yl-[1,2,4]triazolo[1,5-a]pyridine], under setting [1], the IC50 lay in the range of 500 to 1000 nM.
As for `CNC(=O)C1(c2nc3c(OC)ccc(-c4ccc(C#N)cc4)n3n2)CC1` [Compound 210, 1-[5-(4-Cyano-phenyl)-8-methoxy-[1,2,4]triazolo[1,5-a]pyridin-2-yl]-cyclopropanecarboxylic acid methylamide], under setting [2], the IC50 is under 500 nM.
Consider `C=C(C)C(=O)OCCNC(=O)C1(c2nc3c(OC)ccc(-c4cccc(C#N)c4)n3n2)CC1` [Compound 201, 2-Methyl-acrylic acid 2-({1-[5-(3-cyano-phenyl)-8-methoxy-[1,2,4]triazolo[1,5-a]pyridin-2-yl]-cyclopropanecarbonyl}-amino)-ethyl ester], for which, under setting [2], the IC50 was under 500 nM.
Same read-out and setting: next, `CCCNC(=O)C1(c2nc3c(OC)ccc(-c4ccc(C#N)cc4)n3n2)CC1` [Compound 212, 1-[5-(4-Cyano-phenyl)-8-methoxy-[1,2,4]triazolo[1,5-a]pyridin-2-yl]-cyclopropanecarboxylic acid propylamide]: under 500 nM; `CCOC(=O)C1(c2nc3c(OC)ccc(-c4cccc(C#N)c4)n3n2)CC1` [Compound 188, 1-[5-(3-Cyano-phenyl)-8-methoxy-[1,2,4]triazolo[1,5-a]pyridin-2-yl]-cyclopropanecarboxylic acid ethyl ester]: under 500 nM.
In the case of `COc1ccc(-c2cccc(C#N)c2)n2nc(C3(COC(=O)NC(C)C)CC3)nc12` [Compound 152, Isopropyl-carbamic acid 1-[5-(3-cyano-phenyl)-8-methoxy-[1,2,4]triazolo[1,5-a]pyridin-2-yl]-cyclopropylmethyl ester], the IC50 under setting [2] is under 500 nM.
As to `COc1ccc(-c2cccc(C#N)c2)n2nc(C3(C(=O)NCc4cccnc4)CC3)nc12` [Compound 195, 1-[5-(3-Cyano-phenyl)-8-methoxy-[1,2,4]triazolo[1,5-a]pyridin-2-yl]-cyclopropanecarboxylic acid (pyridin-3-ylmethyl)-amide], the IC50 under setting [2] is under 500 nM.
In the case of `CCCCOc1cccc(-c2ccc(OC)c3nc(C4CC4)nn23)c1` [Compound 124, 5-(3-Butoxy-phenyl)-2-cyclopropyl-8-methoxy-[1,2,4]triazolo[1,5-a]pyridine], the IC50 under setting [1] was under 500 nM.
For `COc1ccc(-c2ccc(C#N)cc2)n2nc(C3(C(=O)NCCS(N)(=O)=O)CC3)nc12` [Compound 207, 1-[5-(4-Cyano-phenyl)-8-methoxy-[1,2,4]triazolo[1,5-a]pyridin-2-yl]-cyclopropanecarboxylic acid (2-sulfamoyl-ethyl)-amide], under setting [2], the IC50 was under 500 nM.
For `COc1cc(-c2ccc(OC)c3nc(C4(C(=O)NC(C)C)CC4)nn23)ccc1C#N` [Compound 175, 1-[5-(4-Cyano-3-methoxy-phenyl)-8-methoxy-[1,2,4]triazolo[1,5-a]pyridin-2-yl]-cyclopropanecarboxylic acid isopropylamide], the IC50 under setting [2] is under 500 nM.
Same read-out and setting: for `COc1ccc(-c2cncc(C#N)c2)n2nc(C3(C(=O)NC(C)C)CC3)nc12` [Compound 149, 1-[5-(5-Cyano-pyridin-3-yl)-8-methoxy-[1,2,4]triazolo[1,5-a]pyridin-2-yl]-cyclopropanecarboxylic acid isopropylamide] the value was under 500 nM.
On to `CCCNC(=O)OCC1(c2nc3c(OC)ccc(-c4ccc(C#N)c(OC)c4)n3n2)CC1` [Compound 237, Propyl-carbamic acid 1-[5-(4-cyano-3-methoxy-phenyl)-8-methoxy-[1,2,4]triazolo[1,5-a]pyridin-2-yl]-cyclopropylmethyl ester], for which the IC50 under setting [2] was under 500 nM.
Still for that read-out and setting: next, `COc1ccc(-c2ccc(C#N)cc2)n2nc(C3(C(=O)O)CC3)nc12` [Compound 147, 1-[5-(4-Cyano-phenyl)-8-methoxy-[1,2,4]triazolo[1,5-a]pyridin-2-yl]-cyclopropanecarboxylic acid]: over 1000 nM.
Same read-out and setting: for `COc1ccc(-c2ccc3c(c2)COC3=O)n2nc(C3(C(=O)NCCS(C)(=O)=O)CC3)nc12` [Compound 269, 1-[8-Methoxy-5-(1-oxo-1,3-dihydro-isobenzofuran-5-yl)-[1,2,4]triazolo[1,5-a]pyridin-2-yl]-cyclopropanecarboxylic acid (2-methanesulfonyl-ethyl)-amide] the value was under 500 nM.
For `COc1cc(C#N)cc(-c2ccc(OC)c3nc(C4CC4)nn23)c1` [Compound 169, 3-(2-Cyclopropyl-8-methoxy-[1,2,4]triazolo[1,5-a]pyridin-5-yl)-5-methoxy-benzonitrile], the IC50 under setting [2] was under 500 nM.
Take `COc1ccc(-c2cccc(F)c2)n2nc(C3CC3)nc12` [Compound 125, 2-Cyclopropyl-5-(3-fluoro-phenyl)-8-methoxy-[1,2,4]triazolo[1,5-a]pyridine]: the IC50 under setting [1] is under 500 nM.
As for `COc1ccc(-c2ccc(C#N)cc2)n2nc(C3(C(=O)N4CCOCC4)CC3)nc12` [Compound 205, 4-{8-Methoxy-2-[1-(morpholine-4-carbonyl)-cyclopropyl]-[1,2,4]triazolo[1,5-a]pyridin-5-yl}-benzonitrile], under setting [2], the IC50 was over 1000 nM.
For `COc1cccc(-c2ccc(OC)c3nc(C4CC4)nn23)c1` [Compound 109, 2-Cyclopropyl-8-methoxy-5-(3-methoxy-phenyl)-[1,2,4]triazolo[1,5-a]pyridine], the IC50 under setting [1] was under 500 nM.
For `COc1ccc(-c2cccs2)n2nc(C3CC3)nc12` [Compound 106, 2-Cyclopropyl-8-methoxy-5-thiophen-2-yl-[1,2,4]triazolo[1,5-a]pyridine], the IC50 under setting [1] is under 500 nM.
With `COc1cc(-c2ccc(OC)c3nc(C4(C(=O)NCc5ccccc5)CC4)nn23)ccc1C#N` [Compound 178, 1-[5-(4-Cyano-3-methoxy-phenyl)-8-methoxy-[1,2,4]triazolo[1,5-a]pyridin-2-yl]-cyclopropanecarboxylic acid benzylamide], the concentration for half-maximal inhibition (IC50) under setting [2] was under 500 nM.
`CCOC(=O)C1(c2nc3c(OC)ccc(-c4ccc(C#N)cc4)n3n2)CC1` [Compound 146, 1-[5-(4-Cyano-phenyl)-8-methoxy-[1,2,4]triazolo[1,5-a]pyridin-2-yl]-cyclopropanecarboxylic acid ethyl ester]: the IC50 under setting [2] was 500 to 1000 nM.
The same measure, in the same setting: next, `COc1ccc(-c2cccc3c2CCC3=O)n2nc(C3(C(=O)NC(C)C)CC3)nc12` [Compound 180, 1-[8-Methoxy-5-(1-oxo-indan-4-yl)-[1,2,4]triazolo[1,5-a]pyridin-2-yl]-cyclopropanecarboxylic acid isopropylamide]: under 500 nM.
As to `COc1ccc(-c2ccc(S(C)(=O)=O)cc2)n2nc(C3CC3)nc12` [Compound 120, 2-Cyclopropyl-5-(4-methanesulfonyl-phenyl)-8-methoxy-[1,2,4]triazolo[1,5-a]pyridine], the IC50 under setting [1] is over 1000 nM.
